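Tested at 5 concentrations; 48 h exposure; 96-well plates; endpoints linearly interpolated, else capped at highest concentration. Abbreviation: GI50, concentration required for 50% inhibition of growth. TGI is the concentration that stops growth completely.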
What was measured:
Experiment in all cases: NCI tumour cell line growth inhibition, 48 h
COLO 205 colon = system: COLO 205 colon
SNB-19 CNS = system: SNB-19 CNS
BT-549 breast = system: BT-549 breast
TK-10 renal = system: TK-10 renal
OVCAR-8 ovarian = system: OVCAR-8 ovarian
RPMI-8226 leukemia = system: RPMI-8226 leukemia
KM12 colon = system: KM12 colon
786-0 renal = system: 786-0 renal
MALME-3M melanoma = system: MALME-3M melanoma
HCC-2998 colon = system: HCC-2998 colon
A549 NSCLC = system: A549 NSCLC
HCT-15 colon = system: HCT-15 colon
DU-145 prostate = system: DU-145 prostate
MDA-MB-231 breast = system: MDA-MB-231 breast
ACHN renal = system: ACHN renal
SN12C renal = system: SN12C renal
PC-3 prostate = system: PC-3 prostate
IGROV1 ovarian = system: IGROV1 ovarian
SK-MEL-28 melanoma = system: SK-MEL-28 melanoma
SR leukemia = system: SR leukemia
SW-620 colon = system: SW-620 colon
M14 melanoma = system: M14 melanoma
NCI-H460 lung = system: NCI-H460 lung
HOP-62 NSCLC = system: HOP-62 NSCLC
HOP-92 NSCLC = system: HOP-92 NSCLC
OVCAR-3 ovarian = system: OVCAR-3 ovarian
UACC-257 melanoma = system: UACC-257 melanoma
SK-MEL-5 melanoma = system: SK-MEL-5 melanoma
MOLT-4 leukemia = system: MOLT-4 leukemia
LOX IMVI melanoma = system: LOX IMVI melanoma
HT29 colon = system: HT29 colon
SK-OV-3 ovarian = system: SK-OV-3 ovarian
MCF7 breast = system: MCF7 breast
NCI-H226 lung = system: NCI-H226 lung
A498 renal = system: A498 renal
HL-60(TB) leukemia = system: HL-60(TB) leukemia
SNB-75 CNS = system: SNB-75 CNS
UO-31 renal = system: UO-31 renal
RXF 393 renal = system: RXF 393 renal
SK-MEL-2 melanoma = system: SK-MEL-2 melanoma
CCRF-CEM leukemia = system: CCRF-CEM leukemia
HS 578T breast = system: HS 578T breast
U251 CNS = system: U251 CNS
HCT-116 colon = system: HCT-116 colon
SF-295 CNS = system: SF-295 CNS
SF-268 CNS = system: SF-268 CNS
K-562 leukemia = system: K-562 leukemia
MDA-MB-435 = system: MDA-MB-435
CAKI-1 renal = system: CAKI-1 renal
UACC-62 melanoma = system: UACC-62 melanoma
OVCAR-5 ovarian = system: OVCAR-5 ovarian
SF-539 CNS = system: SF-539 CNS
NCI/ADR-RES ovarian = system: NCI/ADR-RES ovarian
T-47D breast = system: T-47D breast
OVCAR-4 ovarian = system: OVCAR-4 ovarian

## Cc1ccc(NC2=C(Cl)C(=O)c3nc(C)ccc3C2=O)c(C)c1
COLO 205 colon
  GI50: 2.06 µM
  TGI: 4.28 µM
SNB-19 CNS
  GI50: 1.94 µM
  TGI: 4.34 µM
BT-549 breast
  GI50: 1.44 µM
  TGI: 2.82 µM
TK-10 renal
  GI50: 2.15 µM
  TGI: 3.68 µM
OVCAR-8 ovarian
  GI50: 2.41 µM
  TGI: 7.11 µM
RPMI-8226 leukemia
  GI50: 1.54 µM
  TGI: 4.34 µM
KM12 colon
  GI50: 1.74 µM
  TGI: 3.29 µM
786-0 renal
  GI50: 2 µM
  TGI: 4.4 µM
MALME-3M melanoma
  GI50: 1.96 µM
  TGI: 3.9 µM
HCC-2998 colon
  GI50: 1.75 µM
  TGI: 3.31 µM
A549 NSCLC
  GI50: 2.22 µM
  TGI: 5.2 µM
HCT-15 colon
  GI50: 1.3 µM
  TGI: 3.19 µM
DU-145 prostate
  GI50: 1.71 µM
  TGI: 3.22 µM
MDA-MB-231 breast
  GI50: 1.89 µM
  TGI: 4.44 µM
ACHN renal
  GI50: 1.91 µM
  TGI: 3.72 µM
SN12C renal
  GI50: 1.95 µM
  TGI: 5.03 µM
PC-3 prostate
  GI50: 1.56 µM
  TGI: 3.66 µM
IGROV1 ovarian
  GI50: 1.85 µM
  TGI: 3.88 µM
SK-MEL-28 melanoma
  GI50: 1.95 µM
  TGI: 3.84 µM
SR leukemia
  GI50: 1.28 µM
  TGI: 4.19 µM
SW-620 colon
  GI50: 2.15 µM
  TGI: 4.65 µM
M14 melanoma
  GI50: 1.62 µM
  TGI: 3.08 µM
NCI-H460 lung
  GI50: 1.99 µM
  TGI: 4.17 µM
HOP-62 NSCLC
  GI50: 1.71 µM
  TGI: 3.16 µM
HOP-92 NSCLC
  GI50: 2.08 µM
  TGI: 4.35 µM
OVCAR-3 ovarian
  GI50: 1.42 µM
  TGI: 2.84 µM
UACC-257 melanoma
  GI50: 1.5 µM
  TGI: 2.92 µM
SK-MEL-5 melanoma
  GI50: 1.67 µM
  TGI: 3.08 µM
MOLT-4 leukemia
  GI50: 1.6 µM
  TGI: 4.83 µM
LOX IMVI melanoma
  GI50: 1.14 µM
  TGI: 3.88 µM
HT29 colon
  GI50: 2.61 µM
  TGI: 7.34 µM
SK-OV-3 ovarian
  GI50: 2.75 µM
  TGI: 10.6 µM
MCF7 breast
  GI50: 1.4 µM
  TGI: 3.58 µM
NCI-H226 lung
  GI50: 1.81 µM
  TGI: 4.63 µM
A498 renal
  GI50: 1.61 µM
  TGI: 6.59 µM
HL-60(TB) leukemia
  GI50: 1.74 µM
  TGI: 4.48 µM
SNB-75 CNS
  GI50: 1.49 µM
  TGI: 3.08 µM
UO-31 renal
  GI50: 1.56 µM
  TGI: 3.15 µM
RXF 393 renal
  GI50: 1.41 µM
  TGI: 2.76 µM
SK-MEL-2 melanoma
  GI50: 1.93 µM
  TGI: 3.88 µM
CCRF-CEM leukemia
  GI50: 2.02 µM
  TGI: 6 µM
HS 578T breast
  GI50: 2.28 µM
  TGI: 5.95 µM
U251 CNS
  GI50: 1.76 µM
  TGI: 3.37 µM
HCT-116 colon
  GI50: 1.52 µM
  TGI: 3.25 µM
SF-295 CNS
  GI50: 1.82 µM
  TGI: 3.43 µM
SF-268 CNS
  GI50: 1.86 µM
  TGI: 4.16 µM
K-562 leukemia
  GI50: 1.62 µM
  TGI: 5.54 µM
MDA-MB-435
  GI50: 1.96 µM
  TGI: 3.81 µM
CAKI-1 renal
  GI50: 1.73 µM
  TGI: 3.34 µM
UACC-62 melanoma
  GI50: 2 µM
  TGI: 4.01 µM
OVCAR-5 ovarian
  GI50: 2.26 µM
  TGI: 4.33 µM
SF-539 CNS
  GI50: 1.7 µM
  TGI: 3.21 µM
NCI/ADR-RES ovarian
  GI50: 2.17 µM
  TGI: 6.52 µM
T-47D breast
  GI50: 1.66 µM
  TGI: 4.14 µM
OVCAR-4 ovarian
  GI50: 1.53 µM
  TGI: 3.02 µM

Reference: PubChem BioAssay (NCI)
